# Measurements as given in US8530459B2, “Swallowtail motifs for imparting water solubility to porphyrinic compounds” (North Carolina State University, priority 2005, dated 2013).
# Experiments:
# Assay type in all cases: physicochemical
# [1] = Stability of porphyrin-phosphate in protic solvent monitored by 1H NMR and LD-MS; conditions: mixture of CDCl3/CD3OD
# Source text: Porphyrin 12a contains both the bioconjugatable site and the water-solubilizing groups, masked by tert-butyl and methyl esters, respectively. Attempts at the simultaneous removal of the tert-butyl and methyl ester protecting groups with TMS-Br were unsuccessful. […] This compound is identical to 15b (vide infra). […] The following observations were made: • (1) The crude porphyrin-phosphates, while displaying excellent water-solubility initially, precipitated out of solution within minutes. • (2) Because TMS-Br removed some of the zinc, remetalation was attempted with zinc acetate. […] Most (but not all) of the precipitate could be redissolved in concentrated (15 wt %) aqueous NaOH. • (3) When 12b was treated with TMS-Br in the presence of TEA to suppress demetalation,^27 the deprotected porphyrin-diol 11b was not formed until the addition of a protic solvent. During the work-up, 11b formed in quantitative yield, as determined by ^1H NMR spectroscopy and LD-MS [obsd m/z 567, calcd 566 for demetalated (M+H)^+] of the purified sample. • (4) A sample of 12b in a mixture of CDCl3/CD3OD was monitored by ^1H NMR and LD-MS. Within 8 h the formation of porphyrin 11b was almost quantitative (obsd m/z 566, disappearance of phosphate methyl ester singlets). • (5) Basic hydrolysis (H2O/MeOH, NaOH, various concentrations) removed only two of the methyl esters, but none of 11b was formed.
# [2] = Water-solubility of pure porphyrin in distilled water; conditions: thermodynamic from solid; 8-10 mg of pure porphyrin completely dissolved in 300 μL of distilled water; upper limit not determined; read-out: water-solubility (concentration)
# Procedure: Determination of the upper limit of water-solubility was not possible due to the lack of material; however, in each case examined, 8-10 mg of pure porphyrin (14b, 17b, Zn17b, 17a, Zn17a) completely dissolved in 300 μL of distilled water, consistent with a concentration of >20 mM.
# [3] = Stability of aqueous porphyrin solutions (naked eye, absorption spectroscopy); conditions: for precipitation or aggregation of aqueous solutions: naked eye or absorption spectroscopy; for stability of aqueous solutions: room temperature, shielded from the light
# [4] = Solubility in organic solvents
# Source text: Reaction of 11a with dimethyl chlorophosphate in anhydrous pyridine gave no 12a, whereas similar reaction with 11b gave a very low yield of 12b. The poor yields are presumably due to the combination of low solubility and low reactivity on the part of the porphyrin-diol starting materials. We assumed that incorporation of the dimethoxyphosphoryl groups at an earlier stage could provide a more efficient process.
time to almost quantitative formation of porphyrin 11b (loss of phosphate groups) [1] [h],solubility [2] [mM],stability of aqueous solutions [3],Molecule,precipitation or aggregation of aqueous solutions [3],solubility in most organic solvents [4]
,> 20,stable for days,"O=C(O)COc1ccc(-c2c3nc(cc4ccc([nH]4)c(C(CCP(=O)(O)O)CCP(=O)(O)O)c4nc(cc5ccc2[nH]5)C=C4)C=C3)cc1 [17a, 5-(4-(Carboxymethoxy)phenyl)-15-[1,5-bis(dihydroxyphosphoryl)pent-3-yl]porphyrin]",Neither precipitation nor aggregation was observed,
,,stable for days,"O=C(O)COc1ccc(-c2c3nc(cc4ccc([n-]4)c(C(CCP(=O)(O)O)CCP(=O)(O)O)c4nc(cc5ccc2[n-]5)C=C4)C=C3)cc1.[Zn+2] [Zn17a, Zn(II)-5-(4-(Carboxymethoxy)phenyl)-15-[1,5-bis(dihydroxyphosphoryl)pent-3-yl]porphyrin]",Neither precipitation nor aggregation was observed,
,,stable for days,"Zn(II)-5-(4-Bromophenyl)-15-[1,5-bis(dihydroxyphosphoryl)pent-3-yl]porphyrin [Zn17b]",Neither precipitation nor aggregation was observed,

# The remaining lines, values behind:
Molecule,time to almost quantitative formation of porphyrin 11b (loss of phosphate groups) [1] [h],solubility [2] [mM],stability of aqueous solutions [3],precipitation or aggregation of aqueous solutions [3],solubility in most organic solvents [4]
"COP(=O)(OC)OCCC(CCOP(=O)(OC)OC)c1c2nc(cc3ccc([n-]3)c(-c3ccc(Br)cc3)c3nc(cc4ccc1[n-]4)C=C3)C=C2.[Zn+2] [12b, Zn(II)-5-(4-Bromophenyl)-15-[1,5-bis(dimethoxyphosphoryloxy)pent-3-yl]porphyrin]",≤ 8,,,,
"O=P(O)(O)OCCC(CCOP(=O)(O)O)c1c2nc(cc3ccc([nH]3)c(-c3ccc(Br)cc3)c3nc(cc4ccc1[nH]4)C=C3)C=C2 [14b, 5-(4-Bromophenyl)-15-(1,5-bis[dihydroxyphosphoryloxy)pent-3-yl]porphyrin]",,> 20,stable for days,Neither precipitation nor aggregation was observed,
"O=P(O)(O)CCC(CCP(=O)(O)O)c1c2nc(cc3ccc([nH]3)c(-c3ccc(Br)cc3)c3nc(cc4ccc1[nH]4)C=C3)C=C2 [17b, 5-(4-Bromophenyl)-15-[1,5-bis(dihydroxyphosphoryl)pent-3-yl]porphyrin]",,> 20,stable for days,Neither precipitation nor aggregation was observed,
"Zn(II)-5-(4-Bromophenyl)-15-(1,5-dihydroxypent-3-yl)porphyrin [11b]",,,,,only sparingly soluble
"Zn(II)-5-(4-tert-Butoxycarbonylmethoxyphenyl)-5-(1,5-dihydroxypent-3-yl)-porphyrin [11a]",,,,,only sparingly soluble
